The results in this text go back to patent US11014912B2, “Cyanopyrrolidine derivatives with activity as inhibitors of USP30” (MISSION THERAPEUTICS LIMITED, priority 2016, dated 2021).

The target of this experiment is USP30 (Homo sapiens (Human), UniProt Q70CQ3). The experiment in a line: USP30 biochemical IC50 assay. The following applies: fluorescence polarisation, TAMRA labelled peptide linked to ubiquitin substrate; enzyme and compound incubated 30 min at room temp; read after 2 h; read-out: IC50 range. As for the experimental part: USP30 Biochemical IC50 Assay
USP30, sequence (Q70CQ3 57-517): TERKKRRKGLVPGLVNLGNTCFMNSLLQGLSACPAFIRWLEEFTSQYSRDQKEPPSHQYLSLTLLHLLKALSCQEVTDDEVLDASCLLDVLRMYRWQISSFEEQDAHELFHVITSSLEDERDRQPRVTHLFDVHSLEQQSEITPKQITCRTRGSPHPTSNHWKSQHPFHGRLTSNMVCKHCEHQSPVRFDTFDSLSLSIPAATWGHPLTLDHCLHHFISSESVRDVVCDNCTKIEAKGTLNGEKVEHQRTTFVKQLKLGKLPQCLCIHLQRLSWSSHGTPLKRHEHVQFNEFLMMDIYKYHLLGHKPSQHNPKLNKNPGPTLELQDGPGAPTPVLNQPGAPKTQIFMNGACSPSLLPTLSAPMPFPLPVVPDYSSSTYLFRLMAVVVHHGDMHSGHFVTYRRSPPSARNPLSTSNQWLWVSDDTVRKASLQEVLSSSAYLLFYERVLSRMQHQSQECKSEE
Dilution plates were prepared at 21 times the final concentration (2100 μM for a final concentration of 100 μM) in 50% DMSO in a 96-well polypropylene V-bottom plate (Greiner #651201). A typical 8-point dilution series would be 100, 30, 10, 3, 1, 0.3, 0.1, 0.03 μM final. Reactions were performed in duplicate in black 384 well plates (small volume, Greiner 784076) in a final reaction volume of 21 μl. Either 1 μl of 50% DMSO or diluted compound was added to the plate. USP30 was diluted in reaction buffer (40 mM Tris, pH 7.5, 0.005% Tween 20, 0.5 mg/ml BSA, 5 mM beta-mercaptoethanol) to the equivalent of 0.05 μl/well and 10 μl of diluted USP30 was added to the compound. Enzyme and compound were incubated for 30 min at room temp. Reactions were initiated by the addition of 50 nM of TAMRA labelled peptide linked to ubiquitin via an iso-peptide bond as fluorescence polarisation substrate. Reactions were read immediately after addition of substrate and following a 2 h incubation at room temperature. Readings were performed on a Pherastar Plus (BMG Labtech). A Excitation 540 nm; A Emission 590 nm.
(Polarisation of emitted light reports the rotation of a fluorescent probe.)
What is called IC50 is the concentration that inhibits the measured activity by half. On to `N#Cc1cccc(C2CN(C(=O)C[C@@H]3CCN(C#N)C3)C2)c1` [Example 56, (S)-3-(2-(3-(3-cyanophenyl)azetidin-1-yl)-2-oxoethyl)pyrrolidine-1-carbonitrile], for which the half-inhibitory concentration (IC50) is 100 to 1000 nM.
Turning to `N#CN1CC[C@H](CC(=O)Nc2cc(-c3ccc(Cl)cc3)no2)C1` [Example 35, (R)—N-(3-(4-Chlorophenyl)isoxazol-5-yl)-2-(1-cyanopyrrolidin-3-yl)acetamide], the concentration for half-maximal inhibition (IC50) is 100 to 1000 nM.
Take `N#CN1CCC(CC(=O)Nc2nc3cc(Cl)ccc3o2)C1` (centres unmarked) [Example 8, N-(5-Chlorobenzo[d]oxazol-2-yl)-2-(1-cyanopyrrolidin-3-yl)acetamide]: the IC50 was in the range of 100 to 1000 nM.
To `N#CN1CCC(CC(=O)Nc2ccc(Cl)c(Cl)c2)C1` (centres unmarked) [Example 9, 2-(1-Cyanopyrrolidin-3-yl)-N-(3,4-dichlorophenyl)acetamide] belongs 100 to 1000 nM; to `N#CN1CCC(CC(=O)Nc2nnc(-c3ccccc3)s2)C1` (centres unmarked) [Example 41, 2-(1-cyanopyrrolidin-3-yl)-N-(5-phenyl-1,3,4-thiadiazol-2-yl)acetamide], 100 to 1000 nM; to `Cc1noc(C)c1-c1ccc2nc(NC(=O)CC3CCN(C#N)C3)cn2c1` (centres unmarked) [Example 16, 2-(1-Cyanopyrrolidin-3-yl)-N-(6-(3,5-dimethylisoxazol-4-yl)imidazo[1,2-a]pyridin-2-yl)acetamide], 1000 to 10000 nM.
With `N#Cc1ccc(NC(=O)CC2CCN(C#N)C2)nc1` (centres unmarked) [Example 46, N-(5-cyanopyridin-2-yl)-2-(1-cyanopyrrolidin-3-yl)acetamide], the IC50 lay within 1000 to 10000 nM.
`COc1cccc(-c2cc(NC(=O)C[C@@H]3CCN(C#N)C3)on2)c1` [Example 37, (S)—N-(3-(3-Methoxyphenyl)isoxazol-5-yl)-2-(1-cyanopyrrolidin-3-yl)acetamide]: the IC50 lay within 100 to 1000 nM.
As to `N#CN1CC[C@H](CC(=O)Nc2cc(-c3cccc(OC(F)(F)F)c3)no2)C1` [Example 54, (R)-2-(1-cyanopyrrolidin-3-yl)-N-(3-(3-(trifluoromethoxy)phenyl)isoxazol-5-yl)acetamide], the IC50 is 1 to 10 nM.
Take `CC(C(=O)N1CC(c2ccc(C#N)cc2)C1)[C@@H]1CCN(C#N)C1` (single isomer, unassigned) [Example 61]: the IC50 is 1000 to 10000 nM.
The figure for `N#Cc1ccc(C2CN(C(=O)C[C@@H]3CCN(C#N)C3)C2)nc1` [Example 57, (S)-6-(1-(2-(1-cyanopyrrolidin-3-yl)acetyl)azetidin-3-yl)nicotinonitrile] is 100 to 1000 nM.
On to `Cc1ccc(NC(=O)C=C2CCN(C#N)C2)cc1Cl` [Example 19, N-(3-Chloro-4-methylphenyl)-2-(1-cyanopyrrolidin-3-ylidene)acetamide], for which the IC50 lay in the range of 100 to 1000 nM.
Consider `COc1cccc(-c2cc(NC(=O)C[C@H]3CCN(C#N)C3)on2)c1` [Example 43, (R)-2-(1-cyanopyrrolidin-3-yl)-N-(3-(3-methoxyphenyl)isoxazol-5-yl)acetamide], for which the IC50 lay in the range of 10 to 100 nM.
With `N#CN1CCC(CC(=O)N2CC(Oc3ccccc3)C2)C1` (centres unmarked) [Example 12, 3-(2-Oxo-2-(3-phenoxyazetidin-1-yl)ethyl)pyrrolidine-1-carbonitrile], the IC50 lay within 100 to 1000 nM.
Consider `COc1cccc(C2CN(C(=O)C[C@@H]3CCN(C#N)C3)C2)c1F` [Example 68, (S)-3-(2-(3-(2-fluoro-3-methoxyphenyl)azetidin-1-yl)-2-oxoethyl)pyrrolidine-1-carbonitrile], for which the IC50 lay within 10 to 100 nM.
`CN(Cc1cc(-c2ccccc2)no1)C(=O)C=C1CCN(C#N)C1` [Example 27, 2-(1-Cyanopyrrolidin-3-ylidene)-N-methyl-N-((3-phenylisoxazol-5-yl)methyl)acetamide]: the IC50 is 100 to 1000 nM.
In the case of `Cc1cc(C2CN(C(=O)C[C@@H]3CCN(C#N)C3)C2)ccc1C#N` [Example 59, (S)-3-(2-(3-(4-cyano-3-methylphenyl)azetidin-1-yl)-2-oxoethyl)pyrrolidine-1-carbonitrile], the IC50 lay in the range of 10 to 100 nM.
In the case of `CN(Cc1ccc2ncccc2c1)C(=O)C=C1CCN(C#N)C1` [Example 24, 2-(1-Cyanopyrrolidin-3-ylidene)-N-methyl-N-(quinolin-6-ylmethyl)acetamide], the IC50 is 100 to 1000 nM.
Turning to `N#CN1CCC(=CC(=O)Nc2cnc3ccccc3c2)C1` [Example 23, 2-(1-Cyanopyrrolidin-3-ylidene)-N-(quinolin-3-yl)acetamide], the IC50 lay within 100 to 1000 nM.
The figure for `N#CN1CCC(CC(=O)Nc2cccc(Cl)c2)C1` (centres unmarked) [Example 2, N-(3-Chlorophenyl)-2-(1-cyanopyrrolidin-3-yl)acetamide] is 100 to 1000 nM; for `COc1ccc2nc(NC(=O)CC3CCN(C#N)C3)sc2c1` (centres unmarked) [Example 3, 2-(1-Cyanopyrrolidin-3-yl)-N-(6-methoxybenzo[d]thiazol-2-yl)acetamide] it is 100 to 1000 nM.
As to `N#Cc1ccc(C2CN(C(=O)C[C@@H]3CCN(C#N)C3)C2)cc1` [Example 52, (S)-3-(2-(3-(4-cyanophenyl)azetidin-1-yl)-2-oxoethyl)pyrrolidine-1-carbonitrile], the IC50 lay within 100 to 1000 nM.
Regarding `CC(C)Oc1ccc(C2CN(C(=O)C[C@@H]3CCN(C#N)C3)C2)nc1` [Example 65, (S)-3-(2-(3-(5-isopropoxypyridin-2-yl)azetidin-1-yl)-2-oxoethyl)pyrrolidine-1-carbonitrile], the IC50 lay within 100 to 1000 nM.
The figure for `N#CN1CCC(=CC(=O)NCc2cc(C(F)(F)F)ccc2F)C1` [Example 31, 2-(1-Cyanopyrrolidin-3-ylidene)-N-(2-fluoro-5-(trifluoromethyl)benzyl)acetamide] is 1000 to 10000 nM; for `COCCOc1ccc(C2CN(C(=O)C[C@@H]3CCN(C#N)C3)C2)cc1` [Example 66, (S)-3-(2-(3-(4-(2-methoxyethoxy)phenyl)azetidin-1-yl)-2-oxoethyl)pyrrolidine-1-carbonitrile] it is 1000 to 10000 nM.
To `N#CN1CC[C@@H](CC(=O)Nc2cc(-c3cccc(Cl)c3)no2)C1` [Example 42, (S)-N-(3-(3-chlorophenyl)isoxazol-5-yl)-2-(1-cyanopyrrolidin-3-yl)acetamide] belongs 10 to 100 nM.
